Test results: US12668600B2 (Kumquat Biosciences Inc., priority 2023, dated 2026)
pIC50: −log10 of the molar value.

Columns and labels:
Format in all cases: biochemical
KRAS G12V = target: T1, KRAS G12V (Homo sapiens, UniProt P01116, G12V); assay: HTRF KRAS-SOS1 interaction assay, KRAS G12V; conditions: binned ≤2 μM / >2 μM, read-out: Inhibition of KRAS G12V (IC50)
T1 construct: made in house; host or cells: E. coli, e.g. BL21 (DE3)
Outline: (§1)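 Inhibition of the KRAS–SOS1 interaction was measured by HTRF (ex 337, em 620/665 nm) after ≥~10 min incubation. Donor: anti-GST-Eu on GST-KRAS; acceptor: anti-6His-XL665 on His-hSOS1, in HEPES pH 7.4 buffer with DTT, BSA and Igepal. Compounds in duplicate at 0.01–10 μM; IC50 from emission ratio.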

KRAS G12D = target: T2, KRAS G12D (Homo sapiens, UniProt P01116, G12D); assay: HTRF KRAS-SOS1 interaction assay, KRAS G12D; conditions: binned ≤2 μM / >2 μM, read-out: Inhibition of KRAS G12D (IC50)
T2 construct: made in house; host or cells: E. coli, e.g. BL21 (DE3)
T2 sequence (P01116 1-188 isoform P01116-2 G12D): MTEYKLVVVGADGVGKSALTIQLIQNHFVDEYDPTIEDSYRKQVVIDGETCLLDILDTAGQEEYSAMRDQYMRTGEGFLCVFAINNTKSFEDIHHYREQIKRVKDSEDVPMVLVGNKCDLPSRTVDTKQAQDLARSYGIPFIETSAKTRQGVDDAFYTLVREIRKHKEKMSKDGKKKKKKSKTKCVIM
Outline: as §1

KRAS WT = target: T3, KRAS WT (Homo sapiens, UniProt P01116); assay: HTRF KRAS-SOS1 interaction assay, wildtype KRAS; conditions: binned ≤2 μM / >2 μM, read-out: Inhibition of KRAS WT (IC50)
T3 construct: made in house; host or cells: E. coli, e.g. BL21 (DE3)
T3 sequence (P01116 1-188 isoform P01116-2): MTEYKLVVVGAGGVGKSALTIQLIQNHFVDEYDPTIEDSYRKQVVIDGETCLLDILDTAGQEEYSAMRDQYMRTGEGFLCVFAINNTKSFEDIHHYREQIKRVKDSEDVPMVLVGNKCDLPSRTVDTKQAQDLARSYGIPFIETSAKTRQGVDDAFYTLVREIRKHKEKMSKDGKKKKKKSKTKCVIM
Outline: as §1

KRAS G12S = target: T4, KRAS G12S (Homo sapiens, UniProt P01116, G12S); assay: HTRF KRAS-SOS1 interaction assay, KRAS G12S; conditions: binned ≤2 μM / >2 μM, read-out: Inhibition of KRAS G12S (IC50)
T4 construct: made in house; host or cells: E. coli, e.g. BL21 (DE3)
T4 sequence (P01116 1-188 isoform P01116-2 G12S): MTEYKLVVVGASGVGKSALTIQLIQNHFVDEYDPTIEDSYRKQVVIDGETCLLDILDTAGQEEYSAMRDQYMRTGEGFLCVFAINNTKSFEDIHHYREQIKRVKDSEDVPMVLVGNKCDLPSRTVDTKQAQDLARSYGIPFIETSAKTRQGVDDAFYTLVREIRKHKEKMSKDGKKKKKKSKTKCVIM
Outline: as §1

T1 sequence (P01116 1-188 isoform P01116-2 G12V): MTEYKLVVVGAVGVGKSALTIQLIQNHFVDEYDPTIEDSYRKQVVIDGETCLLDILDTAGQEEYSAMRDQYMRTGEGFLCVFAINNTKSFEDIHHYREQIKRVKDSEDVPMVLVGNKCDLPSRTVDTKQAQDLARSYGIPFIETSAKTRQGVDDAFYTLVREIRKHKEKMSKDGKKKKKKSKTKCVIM

Structure (SMILES)	pIC50 (KRAS G12V)	pIC50 (KRAS G12D)	pIC50 (KRAS WT)	pIC50 (KRAS G12S)
C[C@H](c1cc(Cl)cnc1N)N1CCOc2c(C(F)(F)F)c(-c3ccc(F)c4sc(N)c(C#N)c34)c(F)c3nc(OC[C@@]45CCCN4C[C@@]4(CC4(F)F)C5)nc1c23 [Compound 713, 2-amino-4-(4-((R)-1-(2-amino-5-chloropyridin-3-yl)ethyl)-2-(((1S,7a′S)-2,2-difluorodihydro-1′H,3′H-spiro[cyclopropane-1,2′-pyrrolizin]-7a′(5′H)-yl)methoxy)-10-fluoro-8-(trifluoromethyl)-5,6-dihydro-4H-[1,4]oxazepino[5,6,7-de]quinazolin-9-yl)-7-fluorobenzo[b]thiophene-3-carbonitrile]	≥ 5.70	≥ 5.70	≥ 5.70	≥ 5.70
C=C1CN2CCC[C@@]2(COc2nc3c4c(c(C(F)(F)F)c(-c5ccc(F)c6sc(N)c(C#N)c56)c(F)c4n2)OCCN3[C@H](C)c2cc(F)cnc2N)C1 [Compound 620, 2-amino-4-(4-((R)-1-(2-amino-5-fluoropyridin-3-yl)ethyl)-10-fluoro-2-(((S)-2-methylenetetrahydro-1H-pyrrolizin-7a(5H)-yl)methoxy)-8-(trifluoromethyl)-5,6-dihydro-4H-[1,4]oxazepino[5,6,7-de]quinazolin-9-yl)-7-fluorobenzo[b]thiophene-3-carbonitrile]	≥ 5.70	≥ 5.70	≥ 5.70	≥ 5.70
Cc1c(F)c(N)cc(-c2nc3c4c(nc(OC[C@@]56CCCN5C[C@H](F)C6)nc4c2F)N([C@H](C)c2cccnc2N)C[C@H](C)O3)c1C(F)(F)F (single isomer, unassigned) [Compound 687]	≥ 5.70	≥ 5.70	≥ 5.70	≥ 5.70
N#Cc1c(N)sc2c(F)ccc(-c3c(C(F)(F)F)c4c5c(nc(OC[C@@]67CCCN6CC(=C(F)F)C7)nc5c3F)N([C@H](CCC(F)(F)F)c3cccnc3N)CCO4)c12 [Compound 666, 2-amino-4-(4-((R)-1-(2-aminopyridin-3-yl)-4,4,4-trifluorobutyl)-2-(((S)-2-(difluoromethylene)tetrahydro-1H-pyrrolizin-7a(5H)-yl)methoxy)-10-fluoro-8-(trifluoromethyl)-5,6-dihydro-4H-[1,4]oxazepino[5,6,7-de]quinazolin-9-yl)-7-fluorobenzo[b]thiophene-3-carbonitrile]	≥ 5.70	≥ 5.70	≥ 5.70	≥ 5.70
C#Cc1c(F)ccc2cc(O)cc(-c3nc4c5c(nc(OC[C@@]67CCCN6C[C@H](F)C7)nc5c3F)N([C@H](C)c3cccnc3N)CCO4)c12 (single isomer, unassigned) [Compound 862]	≥ 5.70	≥ 5.70	≥ 5.70	≥ 5.70
C#Cc1c(F)ccc2cc(O)cc(-c3nc4c5c(nc(OC[C@@]67CCCN6C[C@H](F)C7)nc5c3F)N(C(C)c3cccnc3N)CCO4)c12 (mixture of isomers) [Compound 742, 4-(10-(1-(2-aminopyridin-3-yl)ethyl)-4-fluoro-2-(((2R,7aS)-2-fluorotetrahydro-1H-pyrrolizin-7a (5H)-yl)methoxy)-9,10-dihydro-8H-7-oxa-1,3,6,10-tetraazacyclohepta[de]naphthalen-5-yl)-5-ethynyl-6-fluoronaphthalen-2-ol]	≥ 5.70	≥ 5.70	≥ 5.70	≥ 5.70
C#Cc1c(F)ccc2cc(O)cc(-c3nc4c5c(nc(OC[C@@H]6CCCN6C)nc5c3F)N(C(C)c3cccnc3N)CCO4)c12 (mixture of isomers) [Compound 722, 4-(10-(1-(2-aminopyridin-3-yl)ethyl)-4-fluoro-2-(((S)-1-methylpyrrolidin-2-yl)methoxy)-9,10-dihydro-8H-7-oxa-1,3,6,10-tetraazacyclohepta[de]naphthalen-5-yl)-5-ethynyl-6-fluoronaphthalen-2-ol]	≥ 5.70	≥ 5.70	≥ 5.70	≥ 5.70
C[C@H](c1cc(F)cnc1N)N1CCOc2c(C(F)(F)F)c(-c3ccc(F)c4sc(N)c(C#N)c34)c(F)c3nc(OCC4(CN5CCC6(CC5)CC6(F)F)CC4)nc1c23 [Compound 841, 2-amino-4-(4-((R)-1-(2-amino-5-fluoropyridin-3-yl)ethyl)-2-((1-((1,1-difluoro-6-azaspiro[2.5]octan-6-yl)methyl)cyclopropyl)methoxy)-10-fluoro-8-(trifluoromethyl)-5,6-dihydro-4H-[1,4]oxazepino[5,6,7-de]quinazolin-9-yl)-7-fluorobenzo[b]thiophene-3-carbonitrile]	≥ 5.70	≥ 5.70	≥ 5.70	≥ 5.70

More lines, now with the values ahead:

pIC50 (KRAS G12V)	pIC50 (KRAS G12D)	pIC50 (KRAS WT)	pIC50 (KRAS G12S)	Structure (SMILES)
≥ 5.70	≥ 5.70	≥ 5.70	≥ 5.70	COC[C@H](c1cccnc1N)N1CCOc2c(C(F)(F)F)c(-c3ccc(F)c4sc(N)c(C#N)c34)c(F)c3nc(OC[C@@]45CCCN4C[C@H](F)C5)nc1c23 [Compound 684, 2-amino-4-(4-((S)-1-(2-aminopyridin-3-yl)-2-methoxyethyl)-10-fluoro-2-(((2R,7aS)-2-fluorotetrahydro-1H-pyrrolizin-7a(5H)-yl)methoxy)-8-(trifluoromethyl)-5,6-dihydro-4H-[1,4]oxazepino[5,6,7-de]quinazolin-9-yl)-7-fluorobenzo[b]thiophene-3-carbonitrile]
≥ 5.70	≥ 5.70	≥ 5.70	≥ 5.70	C#Cc1c(F)ccc2cc(O)cc(-c3nc4c5c(nc(O[C@@H](C)[C@@H]6CCCN6C)nc5c3F)N([C@H](C)c3cccnc3N)CCO4)c12 (single isomer, unassigned) [Compound 779]
< 5.70	< 5.70	< 5.70	< 5.70	C[C@H](c1cc(Cl)cnc1N)N1CCOc2c(C(F)(F)F)c(-c3ccc(F)c4sc(N)c(C#N)c34)c(F)c3nc(OC[C@@]45CCCN4C[C@H](F)C5)nc1c23 (single isomer, unassigned) [Compound 702]
≥ 5.70	≥ 5.70	≥ 5.70	≥ 5.70	C[C@H](c1cccnc1N)N1CCOc2c(Cl)c(-c3ccc(F)c4sc(N)c(C#N)c34)c(F)c3nc(OC[C@@]45CCCN4CC(=NOCC(F)(F)F)C5)nc1c23 (mixture of isomers) [Compound 917, 2-amino-4-(4-((R)-1-(2-aminopyridin-3-yl)ethyl)-8-chloro-10-fluoro-2-(((S)-2-((2,2,2-trifluoroethoxy)imino)tetrahydro-1H-pyrrolizin-7a(5H)-yl)methoxy)-5,6-dihydro-4H-[1,4]oxazepino[5,6,7-de]quinazolin-9-yl)-7-fluorobenzo[b]thiophene-3-carbonitrile]
< 5.70	< 5.70	< 5.70	< 5.70	C[C@H](c1cccnc1N)N1CCOc2c(C(F)(F)F)c(-c3ccc(F)c4sc(N)c(C#N)c34)c(F)c3nc(OCC4(CN5[C@H](C)COC[C@@H]5C)CC4)nc1c23 (single isomer, unassigned) [Compound 719]
≥ 5.70	≥ 5.70	≥ 5.70	≥ 5.70	N#Cc1c(N)sc2c(F)ccc(-c3c(Cl)c4c5c(nc(OC[C@@]67CCCN6C[C@H](F)C7)nc5c3F)N([C@H](/C=C/C3CC3)c3cccnc3N)CCO4)c12 [Compound 676, 2-amino-4-(4-((R,E)-1-(2-aminopyridin-3-yl)-3-cyclopropylallyl)-8-chloro-10-fluoro-2-(((2R,7aS)-2-fluorotetrahydro-1H-pyrrolizin-7a(5H)-yl)methoxy)-5,6-dihydro-4H-[1,4]oxazepino[5,6,7-de]quinazolin-9-yl)-7-fluorobenzo[b]thiophene-3-carbonitrile]
< 5.70	< 5.70	< 5.70	< 5.70	C[C@@H]1CN(CC2(COc3nc4c5c(c(C(F)(F)F)c(-c6ccc(F)c7sc(N)c(C#N)c67)c(F)c5n3)OCCN4[C@H](C)c3cccnc3N)CC2)CCO1 (single isomer, unassigned) [Compound 826]
≥ 5.70	≥ 5.70	≥ 5.70	≥ 5.70	C=CC[C@H](c1cccnc1N)N1CCOc2c(Cl)c(-c3ccc(F)c4sc(N)c(C#N)c34)c(F)c3nc(OC[C@@]45CCCN4C[C@H](F)C5)nc1c23 (atropisomer, axis not shown; (aS)) [Compound 683, 2-amino-4-((R)-4-((R)-1-(2-aminopyridin-3-yl)but-3-en-1-yl)-8-chloro-10-fluoro-2-(((2R,7aS)-2-fluorotetrahydro-1H-pyrrolizin-7a (5H)-yl)methoxy)-5,6-dihydro-4H-[1,4]oxazepino[5,6,7-de]quinazolin-9-yl)-7-fluorobenzo[b]thiophene-3-carbonitrile]
≥ 5.70	≥ 5.70	≥ 5.70	≥ 5.70	C=C[C@H]1COc2c(Cl)c(-c3ccc(F)c4sc(N)c(C#N)c34)c(F)c3nc(OC[C@@]45CCCN4C[C@H](F)C5)nc(c23)N1C(C)c1cccnc1N (single isomer, unassigned) [Compound 732]
≥ 5.70	≥ 5.70	≥ 5.70	≥ 5.70	C[C@H](Oc1nc2c3c(c(Cl)c(-c4ccc(F)c5sc(N)c(C#N)c45)c(F)c3n1)OCCN2[C@H](C)c1cccnc1N)[C@@H]1CCCN1C (single isomer, unassigned) [Compound 633]
